Measurements as given in US20200003762A1, “Diagnostics Platform for Mitochondrial Dysfunctions/Diseases” (BioElectron Technology Corporation, priority 2018, published 2020).

Experiments:
[1] = tested on: mitochondrial FIFO ATP synthase; settings: cited from earlier work
FIFO = settings: cited from earlier work
isolated rat hearts = settings: during ischemia; cited from earlier work
[2] = tested on: monocarboxylic acid transport; settings: cited from earlier work
[3] = tested on: β-cell apical anion exchange; settings: read-out: block β-cell apical anion exchange (IC50); cited from earlier work
[4] = tested on: brush-border membrane vesicles; settings: cited from earlier work
[5] = tested on: plasma and mitochondrial membranes; settings: cited from earlier work
background K+ current = settings: cited from earlier work
Mg2+-ATPase = settings: cited from earlier work
β-amyloid = settings: cited from earlier work
[6] = tested on: mitochondrial superoxide production; settings: cited from earlier work
neoplastic cells = settings: by interfering with hexokinase and disrupting uncoupler-stimulated mitochondrial electron transport; cited from earlier work
succinate oxidase = settings: mitochondria preparations of S. cerevisiae; cited from earlier work
NADH oxidase = settings: mitochondria preparations of S. cerevisiae; cited from earlier work
[7] = tested on: succinate cythochrome C reductase; settings: mitochondria preparations of S. cerevisiae; cited from earlier work
[8] = tested on: NADH-cytochrome C reductase; settings: mitochondria preparations of S. cerevisiae; cited from earlier work
[9] = tested on: NADH:ubiquinone oxidoreductase; settings: cited from earlier work
HL-1 = settings: cited from earlier work
[10] = biological target: mitochondrial outer membrane protein mitoNEET (Homo sapiens, UniProt Q9NZ45); settings: cited from earlier work
PPARγ = PPARγ (Homo sapiens, UniProt P37231); settings: cited from earlier work
[11] = tested on: mice models of diabetes II; settings: cited from earlier work
mitochondrial ATPase = settings: cited from earlier work
ferroptosis = settings: cited from earlier work
Y79 = assay: Exemplary training dataset: dysfunction D1 in Y79 cultures exposed to inhibitor A8674; format: cell-based, Human
Source text: or more simply by Yt1 . . . i,d1 . . . j,c1 . . . l or still as a vector Y of the form [y1, y2, . . . , yi*j*l]. Thus, a partial excerpt from an exemplary training data derived from input tensor X for system 100 may be given by Table 7 below:
In the above training dataset, each entry of column Y is a value in the vector Y discussed above. Each entry q of column X(qk) with a hat “^” denotes a vector and is an entry in input tensor X, and is a vector of measured quantities [q1, q2, . . . , qk] of the analytes in the biomarker measurement such as those shown in Tables 3-5. In other words, the training dataset consists of measured vectors q at indices i,j,l of tensor X per above explanation. Human retinoblastoma (Y79) from Table 1 above is used as the cell-line from which in vitro cultures are grown.
Note that rows 1-6 correspond to the scenario when no inhibitor was exposed (zero/O state), and unsurprisingly column Y indicates a 0 or a 0% probability that dysfunction D1 is present in the corresponding culture.

apoptosis = settings: cited from earlier work
[12] = biological target: human porphobilinogen synthase (PBGS; ALAD) (Homo sapiens, UniProt P13716); settings: allosteric; cited from earlier work
ADP ribosylation = settings: cited from earlier work

mitochondrial outer membrane protein mitoNEET, sequence (Q9NZ45 whole entry): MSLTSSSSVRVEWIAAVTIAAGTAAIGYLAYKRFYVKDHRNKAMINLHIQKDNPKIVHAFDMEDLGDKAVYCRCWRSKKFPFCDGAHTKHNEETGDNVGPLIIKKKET
human porphobilinogen synthase (PBGS; ALAD), sequence (P13716 whole entry): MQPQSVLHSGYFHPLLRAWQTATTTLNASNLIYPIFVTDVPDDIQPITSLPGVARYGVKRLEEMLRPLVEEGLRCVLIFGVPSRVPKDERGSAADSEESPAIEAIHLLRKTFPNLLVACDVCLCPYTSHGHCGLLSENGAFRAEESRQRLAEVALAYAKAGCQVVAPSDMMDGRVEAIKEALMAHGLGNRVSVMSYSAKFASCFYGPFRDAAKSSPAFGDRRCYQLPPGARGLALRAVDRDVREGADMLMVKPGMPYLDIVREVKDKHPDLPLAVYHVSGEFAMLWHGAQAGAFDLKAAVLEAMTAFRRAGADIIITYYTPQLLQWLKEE
PPARγ, sequence (P37231 whole entry, species assumed): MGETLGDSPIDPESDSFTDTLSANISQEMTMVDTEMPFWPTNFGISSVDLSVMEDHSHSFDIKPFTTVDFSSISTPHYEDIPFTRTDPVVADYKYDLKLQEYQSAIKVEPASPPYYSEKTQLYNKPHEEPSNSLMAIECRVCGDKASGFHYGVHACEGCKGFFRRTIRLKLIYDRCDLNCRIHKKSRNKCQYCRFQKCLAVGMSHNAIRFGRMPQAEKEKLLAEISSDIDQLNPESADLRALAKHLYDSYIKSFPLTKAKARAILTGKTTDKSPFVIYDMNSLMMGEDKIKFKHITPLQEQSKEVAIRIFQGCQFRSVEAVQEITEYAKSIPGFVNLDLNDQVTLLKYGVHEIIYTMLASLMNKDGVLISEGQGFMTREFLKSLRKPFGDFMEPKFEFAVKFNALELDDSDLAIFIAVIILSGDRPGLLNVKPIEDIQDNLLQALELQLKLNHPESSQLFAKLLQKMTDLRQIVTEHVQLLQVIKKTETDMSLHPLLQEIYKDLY

Question: With `CC1(C)Oc2ccc(S(=O)(=O)N3CCCCC3)cc2[C@@H](N(Cc2ncc[nH]2)c2ccc(Cl)cc2)[C@@H]1O.Cl` [BM0017, BMS-199264 hydrochloride] as the molecule, how does the “ATP hydrolase activity of mitochondrial FIFO ATP synthase” value [1] read?
Answer: Potently inhibits the ATP

Question: What about the “effect on the ATP synthase function of FIFO” value (FIFO) of the same molecule?
Answer: 199624 has no effect on the ATP

Question: What about the “depletion of ATP levels” value (isolated rat hearts) of the same molecule?
Answer: blocks depletion of ATP levels,

Question: Which “monocarboxylic acid transport, including lactate and pyruvate transport” value [2] does the source give for `N#CC(=Cc1ccc(O)cc1)C(=O)O` [C2020, α-Cyano-4-hydroxycinnamic acid] here?
Answer: Specific inhibitor of

Question: And the IC50 [3]?
Answer: 2.4 mM

Question: With `N#CC(C#N)=NNc1cccc(Cl)c1` [C2759, Carbonyl cyanide 3-chlorophenylhydrazone] as the molecule, how does the Cl-/Cl- exchange activities [4] read?
Answer: hepatic lipase and partially

Question: What about the “pH gradient-activated Cl- uptake” value [4] of the same molecule?
Answer: hepatic lipase and partially

Question: What does the source list for `N#CC(C#N)=NNc1ccc(OC(F)(F)F)cc1` [C2920, Carbonyl cyanide 4-(trifluoromethoxy)phenylhydrazone]?
Answer: depolarizing plasma and mitochondrial membranes [5]: depolarizing plasma and; background K+ current (background K+ current): It also is reported to inhibit; inward current (background K+ current): induce a small inward current,; Mg2+-ATPase activity (Mg2+-ATPase): [Na+]. FCCP stimulates Mg2+-; β-amyloid production (β-amyloid): ATPase activity, inhibits β-; effect of selective glutamate agonist NMDA on mitochondrial superoxide production [6]: amyloid production, and mimics

Question: For `O=C(O)c1nn(Cc2ccc(Cl)cc2Cl)c2ccccc12` [L4900, Lonidamine], which “energy metabolism of neoplastic cells” value (neoplastic cells) is on record?
Answer: Inhibits the energy metabolism

Question: What does the source list for `O=[N+]([O-])c1c(Cl)cccc1-c1c[nH]cc1Cl` [P8861, Pyrrolnitrin from Pseudomonas cepacia]?
Answer: succinate oxidase (succinate oxidase): inhibited succinate oxidase,; NADH oxidase (NADH oxidase): inhibited succinate oxidase,; succinate cythochrome C reductase [7]: inhibited succinate oxidase,; NADH-cytochrome C reductase [8]: inhibited succinate oxidase,

Question: With `C=C(C)[C@H]1Cc2c(ccc3c2O[C@@H]2COc4cc(OC)c(OC)cc4[C@@H]2C3=O)O1` [R8875, Rotenone] as the molecule, how does the “mitochondrial electron transport at NADH:ubiquinone oxidoreductase” value [9] read?
Answer: Inhibitor of mitochondrial

Question: Which “ATP hydrolase activity of mitochondrial FIFO ATP synthase” value [1] does the source give for `O=C(Oc1cc(S(=O)(=O)c2ccccc2)ccc1[N+](=O)[O-])c1ccc(Cl)cc1` [SML1122, BTB06584] here?
Answer: BTB06584 inhibits the ATP

Question: And the “effect on mitochondrial membrane potential” value (HL-1)?
Answer: has no effect on oxygen

Question: What about the “effect on oxygen consumption” value (HL-1) of the same molecule?
Answer: has no effect on oxygen

Question: For `CCOC(=O)N1CCC(NC(=S)Nc2cc(Cl)cc(Cl)c2)CC1` [SML1280, TT01001], which “binding to mitoNEET” value [10] is on record?
Answer: ligands that binds to mitoNEET

Question: What about the PPARγ activation (PPARγ) of the same molecule?
Answer: without PPARγ activation.

Question: And the glucose intolerance ([11]; mice models of diabetes II)?
Answer: TT01001 improves hyperglycemia,

Question: And the hyperglycemia ([11]; mice models of diabetes II)?
Answer: TT01001 improves hyperglycemia,

Question: And the hyperlipidemia ([11]; mice models of diabetes II)?
Answer: TT01001 improves hyperglycemia,

Question: And the “pioglitazone associated weight gain” value ([11]; mouse, in vivo)?
Answer: anti-diabetic effects without

Question: With `CC[C@H]1/C=C/C=C/C[C@@H](C)[C@H](O)[C@@](C)(O)C(=O)[C@@H](C)[C@H](O)[C@@H](C)C(=O)[C@@H](C)[C@H](O)[C@@H](C)/C=C/C(=O)O[C@@H]2[C@H](C)[C@H](CC1)O[C@]1(CC[C@H](C)[C@H](C[C@@H](C)O)O1)[C@H]2C` [compound 04876, Oligomycin from Streptomyces diastatochromogenes] as the molecule, how does the “mitochondrial ATPase and phosphoryl group transfer” value (mitochondrial ATPase) read?
Answer: Macrolide antibiotic; inhibits

Question: For `Cc1c(C)c(O)c(CC[C@](C)(O)CCC[C@H](C)CCC[C@H](C)CCCC(C)C)c(C)c1O` [vitamin E hydroquinone], which inhibition of ferroptosis (ferroptosis) is on record?
Answer: potent inhibitor

Question: Which “Y (probability that dysfunction D1 is present)” value (Y79; 1 minute, 1 uL) does the source give for “Antimycin A from Streptomyces sp. [A8674]” here?
Answer: 0%

Question: What about the “Y (probability that dysfunction D1 is present)” value (Y79; 30 minutes, 5 uL) of the same molecule?
Answer: 100% or 1

Question: What about the “Y (probability that dysfunction D1 is present)” value (Y79; 1 hours, 1 uL) of the same molecule?
Answer: 100% or 1

Question: And the “Y (probability that dysfunction D1 is present)” value (Y79; 5 hours, 1 uL)?
Answer: 100% or 1

Question: And the “Y (probability that dysfunction D1 is present)” value (Y79; 10 hours, 1 uL)?
Answer: 100% or 1

Question: And the “Y (probability that dysfunction D1 is present)” value (Y79; 2 days, 1 uL)?
Answer: 100% or 1

Question: And the apoptosis (apoptosis)?
Answer: complex III. Induces apoptosis.

Question: For ML-3H2 [M2324], which “inhibition of human porphobilinogen synthase” value [12] is on record?
Answer: hexamer-stabilizing inhibitor

Question: With “m-Iodobenzyl-guanidine hemisulfate salt [I9890]” as the molecule, how does the ADP ribosylation (ADP ribosylation) read?
Answer: Antitumor agent which inhibits
